In patent publication US9790169B2, “IDO inhibitors” (BRISTOL-MYERS SQUIBB COMPANY, priority 2015, dated 2017):

Columns and labels:
[1] = biological target: T1, human IDO1 (Homo sapiens, UniProt P14902); test: Assessment of human IDO-1 inhibitory activity in Hela cells (Interferon-gamma stimulated HeLa cells, Ehrlich reagent, absorbance 490 nm); type: cell-based; design: endogenous in cells; host or cells: HeLa cells stimulated with interferon-gamma; conditions: Hela Human IDO-1 cellular assay
Procedure: Exemplary compounds were tested for inhibition of IDO activity.
Assessment of Human IDO-1 Inhibitory Activity in Hela Cells
HeLa cells were seeded at 20,000 cells per 30 μL per well with RPMI/phenol red free media containing 10% FBS in a 384-well tissue culture plate (black with clear bottoms). 50 nL of compound was added to cells and incubated at 37° C. for one hour. 20 μL of the recombinant human Interferon-gamma (R&D System, Cat. #285-IF, at final concentration of 10 ng/ml) or recombinant murine Interferon-gamma (PEPROTECH® Inc., Cat. #315-05, final concentration of 5 ng/ml) was added to activate IDO signaling. The cells were incubated for 18 hours in 37° C. incubator with 5% CO2.
Compound treatment was stopped by adding 5 μl trichloroacetic acid to a final concentration of 3%. Subsequently, the cell plate was further incubated at 50° C. for 30 minute. An equal volume supernatant (20 μL) and 2% (w/v) Ehrlich reagent (4-dimethylaminobenzaldehyde) in glacial acetic acid were mixed in a new clear bottom 384-well plate. This plate was incubated at room temperature for 30 minutes. Absorbance at 490 nm was measured on Envision plate reader.
Compound IC50 values were calculated using counts from unstimulated (no INF-gamma treatment) wells as 100% inhibition. INF-gamma treatment without compound treatment as 0% inhibition.

[2] = biological target: T1, human IDO1; test: Assessment of human IDO-1 inhibitory activity in HEK cells (human IDO1/HEK293 cells, kynurenine read-out with Ehrlich reagent, absorbance 490 nm); type: cell-based; design: expressed in transfected cells; conditions: HEK Human IDO-1 cellular assay
Outline: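 Kynurenine output from stably IDO1-transfected HEK293 cells (10,000/well, phenol red-free RPMI, 10% FBS) after 20 h compound exposure at 37 °C. The reaction was stopped with 0.2% TCA and heated 30 min at 50 °C, then the supernatant was mixed with Ehrlich reagent and read at 490 nm. IC50 was set against DMSO and a 500 nM reference standard as 0 and 100% inhibition.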

T1 sequence (P14902 whole entry): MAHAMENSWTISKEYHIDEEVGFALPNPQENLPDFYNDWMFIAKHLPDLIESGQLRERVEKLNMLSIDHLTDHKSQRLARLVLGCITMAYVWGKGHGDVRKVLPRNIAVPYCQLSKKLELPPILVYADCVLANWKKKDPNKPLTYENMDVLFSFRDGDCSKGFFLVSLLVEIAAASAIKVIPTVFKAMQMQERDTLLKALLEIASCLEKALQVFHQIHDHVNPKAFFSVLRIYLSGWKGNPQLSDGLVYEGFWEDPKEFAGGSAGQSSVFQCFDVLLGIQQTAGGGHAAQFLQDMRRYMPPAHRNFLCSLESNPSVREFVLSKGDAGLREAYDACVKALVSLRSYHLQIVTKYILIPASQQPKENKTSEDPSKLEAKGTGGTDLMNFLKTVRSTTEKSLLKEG

Row | IC50 [1] [nM] | IC50 [2] [nM] | SMILES
1 | > 50 | – | CCC1COCCN1c1ccc([C@@H](COC)CC(=O)O)cc1Nc1ccc(C#N)cc1 (single isomer, unassigned) [Example 1281]
2 | > 50 | – | CCOc1ncc(Nc2cc([C@H](CC)CC#N)ccc2N(CC)C2CCOCC2)cn1 [Example 1333, (R)-3-(3-((2-Ethoxypyrimidin-5-yl)amino)-4-(ethyl(tetrahydro-2H-pyran-4-yl)amino)phenyl)pentanenitrile]
3 | < 5 | – | CCN(c1ccc([C@@H](COC)CC(=O)O)cc1Nc1ccc(C#N)cc1)C1CCOCC1 (stereo in doubt) [compound 349, 3-(3-((4-Cyanophenyl)amino)-4-(ethyl(tetrahydro-2H-pyran-4-yl)amino)phenyl)-4-methoxybutanoic acid]
4 | < 5 | – | CCC(CC(=O)O)c1ccc(N(C)C2CCOCC2)c(Nc2ccc(C#N)cc2)c1 (single isomer, unassigned) [Example 870, 3-(3-((4-Cyanophenyl)amino)-4-(methyl(tetrahydro-2H-pyran-4-yl)amino)phenyl)pentanoic acid]
5 | – | < 5 | COCC(CC(=O)O)c1cc(F)c(N(CC(C)C)C2CCCCC2)c(NC(=O)Nc2ccc(Cl)cc2F)c1 (single isomer, unassigned) [Example 1156, 3-(3-(3-(4-chloro-2-fluorophenyl)ureido)-4-(cyclohexyl(isobutyl)amino)-5-fluorophenyl)-4-methoxybutanoic acid]
6 | – | < 5 | COCC(CC(=O)O)c1ccc(N(CC(C)C)C2CCCCC2)c(NC(=O)Nc2ccc(OC)cc2F)c1 (single isomer, unassigned) [Example 1233, 3-(4-(Cyclohexyl(isobutyl)amino)-3-(3-(2-fluoro-4-methoxyphenyl)ureido)phenyl)-4-methoxybutanoic acid]
7 | – | > 50 | COCC(CC(=O)O)c1ccc(N(CC(C)C)C2CCOCC2)c(NC(=O)Nc2ccc(OC(F)(F)F)cc2)c1 (single isomer, unassigned) [Example 1211, 3-(4-(Isobutyl(tetrahydro-2H-pyran-4-yl)amino)-3-(3-(4-(trifluoromethoxy)phenyl)ureido)phenyl)-4-methoxybutanoic acid]
8 | – | > 50 | CC[C@H](CC(=O)O)c1ccc(N2CCC[C@@H]2C(C)(C)O)c(NC(=O)Nc2ccc(C)cc2)c1 (single isomer, unassigned) [Example 774]
9 | – | < 50 | C[C@@H]1CN(c2ccc(C(C)(C)CC(=O)O)cc2Nc2ccc(C#N)cc2)C[C@H](C)O1 [Example 731, 3-(3-((4-Cyanophenyl)amino)-4-((2S,6R)-2,6-dimethylmorpholino)phenyl)-3-methylbutanoic acid]
10 | – | < 5 | COCC(CC(=O)O)c1cc(F)c(N(CC(C)C)C2CCCCC2)c(NC(=O)Nc2ccc(Cl)cc2)c1 (single isomer, unassigned) [Example 1162, 3-(3-(3-(4-chlorophenyl)ureido)-4-(cyclohexyl(isobutyl)amino)-5-fluorophenyl)-4-methoxybutanoic acid]
11 | – | < 5 | CCC(CC(=O)O)c1ccc(N(CC(C)C)C2CCCCC2)c(NC(=O)Cc2cc(F)ccc2F)c1 (single isomer, unassigned) [Example 1098 E2]
12 | – | > 50 | CC(CC(=O)O)c1ccc(N2CCC[C@H]2C(C)(C)O)c(Nc2ccc(C#N)cc2)c1 (single isomer, unassigned) [Example 797]
13 | – | < 5 | CCC(CC(=O)O)c1ccc(N2CCOC[C@H]2C(C)C)c(Nc2ccc(C#N)cc2)c1 (single isomer, unassigned) [Example 899]
14 | – | < 50 | CC(CC(=O)O)c1ccc(N2CCC[C@H]2C(C)(C)O)c(Nc2ccc(Cl)cc2)c1 (single isomer, unassigned) [Example 804]
15 | – | > 50 | CC(CC(=O)O)c1ccc(N2CCC[C@H]2C(C)(C)O)c(Nc2ccc(F)cc2)c1 (single isomer, unassigned) [Example 798]

Second part, the molecule before the results:

Row | SMILES | IC50 [1] [nM] | IC50 [2] [nM]
16 | CCN(c1ccc([C@@H](COC)CC(=O)O)cc1Nc1ccc(S(=O)(=O)CC)cc1)C1CCOCC1 (single isomer, unassigned) [Example 386] | > 50 | –
17 | CCN(c1ccc([C@@H](COC)CC(=O)O)cc1Nc1ccc(F)cc1F)C1CCOCC1 (single isomer, unassigned) [Example 365] | < 50 | –
18 | CCC(CC(=O)O)c1cc(F)c(N(CC)C2CCOCC2)c(Nc2cnc(OC)nc2)c1 (single isomer, unassigned) [Example 135, 3-(4-(ethyl(tetrahydro-2H-pyran-4-yl)amino)-3-fluoro-5-((2-methoxypyrimidin-5-yl)amino)phenyl) pentanoic acid] | < 50 | –
19 | CCN(c1ccc([C@@H](COC)CC(=O)O)cc1Nc1cnc(C)nc1)C1CCOCC1 (single isomer, unassigned) [Example 379] | – | > 50
20 | CCC(CC(=O)O)c1cc(F)c(N(CC(C)C)CC(C)C)c(NC(=O)Cc2ccc(C)cc2)c1 (single isomer, unassigned) [980-1] | – | < 5
21 | CCCN(c1ccc([C@@H](COC)CC(=O)O)cc1Nc1ccc(Cl)cc1)C1CCOCC1 (single isomer, unassigned) [Example 564] | – | < 5
22 | CCN(c1ccc(C(C)(C)CC(=O)O)cc1NC(=O)Nc1ccc(C)cc1)C1CCOCC1 [Example 167, 3-(4-(Ethyl(tetrahydro-2H-pyran-4-yl)amino)-3-(3-(p-tolyl)ureido)phenyl)-3-methylbutanoic acid] | – | < 50
23 | CCC(CC(=O)O)c1ccc(N(CC2CC2)C2CCOCC2)c(Nc2cnc(OC)nc2)c1 (single isomer, unassigned) [Example 703, 3-(4-((cyclopropylmethyl) (tetrahydro-2H-pyran-4-yl)amino)-3-((2-methoxypyrimidin-5-yl)amino)phenyl)pentanoic acid] | – | < 5
24 | CCOc1ccc(Nc2cc(C(C)CC(=O)O)ccc2N(CC(C)(C)O)C2CCCCC2)c(F)c1 (single isomer, unassigned) [Example 56, 3-(4-(cyclohexyl(2-hydroxy-2-methylpropyl)amino)-3-((4-ethoxy-2-fluorophenyl)amino)phenyl)butanoic acid] | – | < 50
25 | CCC(CC(=O)O)c1cc(F)c(N(CC(C)C)CC(C)C)c(Nc2ccc(Cl)c(OCC(F)(F)F)c2)c1 (single isomer, unassigned) [Example 102, 3-(3-((4-chloro-3-(2,2,2-trifluoroethoxy)phenyl)amino)-4-(diisobutylamino)-5-fluorophenyl)pentanoic acid] | – | < 5
26 | CCN(c1ccc(C(CC(=O)O)c2ccccc2)cc1NC(=O)Nc1ccc(Cl)cc1F)C1CCOCC1 (single isomer, unassigned) [Example 595, 3-(3-(3-(4-chloro-2-fluorophenyl)ureido)-4-(ethyl(tetrahydro-2H-pyran-4-yl)amino)phenyl)-3-phenylpropanoic acid] | – | > 50
27 | CCN(c1ccc(C(C)CC(=O)O)cc1Nc1ccc(C#N)cc1)C1CCOCC1 (single isomer, unassigned) [Example 613, 3-(3-((4-cyanophenyl)amino)-4-(ethyl(tetrahydro-2H-pyran-4-yl)amino)phenyl) butanoic acid] | – | < 5
28 | COCC(CC(=O)O)c1ccc(N(CC2CC2)C2CCOCC2)c(Nc2ccc3nc(C)sc3c2)c1 (single isomer, unassigned) [Example 680, 3-(4-((cyclopropylmethyl) (tetrahydro-2H-pyran-4-yl)amino)-3-((2-methylbenzo[d]thiazol-6-yl)amino)phenyl)-4-methoxybutanoic acid] | – | < 50
